Structures are written as SMILES. Counter-ions that a name gives are not always drawn. Like-named read-outs stand apart in the source and are kept apart here.

Broadly, the IC50 is the concentration needed to halve the response being measured.

Format in all cases: biochemical
Assay [1] has as its target JAK2 (Homo sapiens (Human), UniProt O60674). Description: JAK2 Inhibition Assay (Example C, Omnia kinase fluorescence peptide substrate assay). The settings on record: JAK2 Enzyme IC50 1 mM ATP, averaged IC50 ranges. Put shortly: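 4 nM JAK2 with 1 mM ATP and 10 μM Omnia Y7 peptide in 25 mM HEPES pH 7.4, 10 mM MgCl2, 0.01% Triton X-100, 1 mM DTT, 2% DMSO. Sox fluorescence (ex 360/em 485 nm) read every 50 s for 45 min; IC50 from 4-parameter fit of percent of control.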

Assay [2] deals with JAK1 (Homo sapiens (Human), UniProt P23458). Description: JAK1 Inhibition Assay (Example B, Omnia kinase fluorescence peptide substrate assay). Put shortly: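 Recombinant human JAK1 (12.5 nM) with 1 mM ATP and 8 μM Omnia Y12 Sox-peptide in 25 mM HEPES pH 7.4, 10 mM MgCl2, 0.01% Triton X-100, 1 mM DTT, 2% DMSO final. Phosphorylation read kinetically (ex 360/em 485 nm, 45 min); IC50 from 4-parameter fit of percent of control.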

For assay [3], the target named is Human Tyk2 kinase domain (Homo sapiens (Human), UniProt P29597). Description: Tyk2 Inhibition Assay (Example A, Omnia kinase fluorescence peptide substrate assay). The note with it: TYK2 Enzyme IC50 1 mM ATP, averaged IC50 ranges. The gist of the method: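 Omnia Sox-peptide kinetic fluorescence assay (ex 360/em 485 nm, read every 50 s for 45 min) with 1 nM human Tyk2 kinase domain (aa 886–1187, His tag cleaved, baculovirus-expressed), 1 mM ATP, 8 μM Omnia Y12 peptide, in 25 mM HEPES pH 7.4, 10 mM MgCl2, 0.01% Triton X-100, 1 mM DTT, 2% DMSO. IC50 from 4-parameter logistic fit of percent of control.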

For assay [4], the target named is JAK3 (Homo sapiens (Human), UniProt P52333). The assay can be described thus: JAK3 Inhibition Assay (Example D, Omnia kinase fluorescence peptide substrate assay). Put shortly:
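Mixture held 2 nM JAK3, 1 mM ATP and 10 μM Omnia Y7 peptide in 25 mM HEPES pH 7.4, 10 mM MgCl2, 0.01% Triton X-100, 1 mM DTT, 2% DMSO final. Sox fluorescence (ex 360/em 485 nm) was read every 50 s for 45 min. IC50 came from a 4-parameter logistic fit of percent of control.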

The mark [5] stands for this setting: JAK1 Enzyme IC50 1 mM ATP, 1 mM ATP, averaged IC50 ranges.

Sequence of JAK1 (P23458 whole entry): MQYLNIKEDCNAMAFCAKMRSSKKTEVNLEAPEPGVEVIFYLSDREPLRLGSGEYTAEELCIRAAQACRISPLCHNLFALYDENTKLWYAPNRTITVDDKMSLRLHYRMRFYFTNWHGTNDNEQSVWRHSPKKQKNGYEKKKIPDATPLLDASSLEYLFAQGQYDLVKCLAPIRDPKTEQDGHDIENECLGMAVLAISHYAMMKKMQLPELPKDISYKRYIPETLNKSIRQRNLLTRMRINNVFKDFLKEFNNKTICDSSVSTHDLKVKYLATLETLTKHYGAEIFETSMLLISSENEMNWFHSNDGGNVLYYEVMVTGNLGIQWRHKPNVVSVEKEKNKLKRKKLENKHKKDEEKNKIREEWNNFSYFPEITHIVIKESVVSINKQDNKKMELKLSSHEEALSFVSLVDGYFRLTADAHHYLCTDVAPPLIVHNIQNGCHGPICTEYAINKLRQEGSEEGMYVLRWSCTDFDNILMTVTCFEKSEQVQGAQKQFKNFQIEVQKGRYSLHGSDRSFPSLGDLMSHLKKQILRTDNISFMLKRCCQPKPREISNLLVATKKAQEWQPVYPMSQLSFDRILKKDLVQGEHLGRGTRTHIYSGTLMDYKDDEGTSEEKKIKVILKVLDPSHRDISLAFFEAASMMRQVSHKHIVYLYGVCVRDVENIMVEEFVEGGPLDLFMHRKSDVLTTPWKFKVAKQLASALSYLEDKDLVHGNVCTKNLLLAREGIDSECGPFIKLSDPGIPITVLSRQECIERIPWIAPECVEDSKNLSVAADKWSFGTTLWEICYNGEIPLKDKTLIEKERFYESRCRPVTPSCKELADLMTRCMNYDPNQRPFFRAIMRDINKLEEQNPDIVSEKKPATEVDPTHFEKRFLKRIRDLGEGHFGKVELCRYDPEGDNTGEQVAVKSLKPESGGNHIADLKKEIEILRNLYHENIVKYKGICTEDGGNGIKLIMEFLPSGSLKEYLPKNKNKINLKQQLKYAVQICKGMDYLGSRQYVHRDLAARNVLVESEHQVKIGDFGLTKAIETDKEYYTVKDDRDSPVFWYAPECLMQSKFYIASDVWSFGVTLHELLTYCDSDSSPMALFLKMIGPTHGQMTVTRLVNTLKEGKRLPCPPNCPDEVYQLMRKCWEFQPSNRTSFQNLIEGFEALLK
Sequence of Human Tyk2 kinase domain (P29597 886-1187): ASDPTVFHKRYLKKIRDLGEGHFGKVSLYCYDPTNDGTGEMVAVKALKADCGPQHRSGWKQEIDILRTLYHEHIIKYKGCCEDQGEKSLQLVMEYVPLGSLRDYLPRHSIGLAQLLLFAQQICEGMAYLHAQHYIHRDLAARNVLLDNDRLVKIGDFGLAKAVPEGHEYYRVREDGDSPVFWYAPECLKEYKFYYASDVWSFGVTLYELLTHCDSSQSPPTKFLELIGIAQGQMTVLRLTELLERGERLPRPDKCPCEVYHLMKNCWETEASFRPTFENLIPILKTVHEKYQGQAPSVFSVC
Sequence of JAK2 (O60674 whole entry): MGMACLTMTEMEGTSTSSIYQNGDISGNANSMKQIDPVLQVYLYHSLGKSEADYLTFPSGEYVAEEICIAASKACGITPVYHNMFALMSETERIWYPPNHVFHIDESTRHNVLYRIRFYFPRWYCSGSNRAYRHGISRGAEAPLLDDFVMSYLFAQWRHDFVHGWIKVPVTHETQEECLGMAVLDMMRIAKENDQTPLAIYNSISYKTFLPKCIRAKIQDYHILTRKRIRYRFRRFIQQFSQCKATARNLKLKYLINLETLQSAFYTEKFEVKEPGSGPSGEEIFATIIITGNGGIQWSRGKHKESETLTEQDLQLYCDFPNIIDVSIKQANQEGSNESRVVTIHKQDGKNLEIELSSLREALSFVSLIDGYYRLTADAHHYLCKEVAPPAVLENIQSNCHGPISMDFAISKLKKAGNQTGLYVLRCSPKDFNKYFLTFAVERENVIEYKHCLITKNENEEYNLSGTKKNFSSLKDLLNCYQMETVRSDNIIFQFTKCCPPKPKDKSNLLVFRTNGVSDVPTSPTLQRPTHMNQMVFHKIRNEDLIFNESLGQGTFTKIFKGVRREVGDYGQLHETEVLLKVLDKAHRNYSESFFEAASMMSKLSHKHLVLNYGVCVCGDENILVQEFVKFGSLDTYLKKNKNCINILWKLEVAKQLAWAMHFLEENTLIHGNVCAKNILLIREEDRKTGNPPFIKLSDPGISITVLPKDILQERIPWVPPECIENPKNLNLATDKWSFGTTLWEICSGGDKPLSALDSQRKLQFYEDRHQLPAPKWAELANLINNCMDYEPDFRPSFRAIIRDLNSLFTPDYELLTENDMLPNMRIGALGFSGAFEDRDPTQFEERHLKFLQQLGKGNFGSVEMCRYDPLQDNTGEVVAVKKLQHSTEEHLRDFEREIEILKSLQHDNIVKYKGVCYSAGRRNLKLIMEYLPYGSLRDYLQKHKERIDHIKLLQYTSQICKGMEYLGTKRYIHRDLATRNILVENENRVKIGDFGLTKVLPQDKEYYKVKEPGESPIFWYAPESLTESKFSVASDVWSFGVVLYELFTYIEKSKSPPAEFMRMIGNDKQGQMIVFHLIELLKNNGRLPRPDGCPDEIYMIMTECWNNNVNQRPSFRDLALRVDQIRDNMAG
Sequence of JAK3 (P52333 whole entry): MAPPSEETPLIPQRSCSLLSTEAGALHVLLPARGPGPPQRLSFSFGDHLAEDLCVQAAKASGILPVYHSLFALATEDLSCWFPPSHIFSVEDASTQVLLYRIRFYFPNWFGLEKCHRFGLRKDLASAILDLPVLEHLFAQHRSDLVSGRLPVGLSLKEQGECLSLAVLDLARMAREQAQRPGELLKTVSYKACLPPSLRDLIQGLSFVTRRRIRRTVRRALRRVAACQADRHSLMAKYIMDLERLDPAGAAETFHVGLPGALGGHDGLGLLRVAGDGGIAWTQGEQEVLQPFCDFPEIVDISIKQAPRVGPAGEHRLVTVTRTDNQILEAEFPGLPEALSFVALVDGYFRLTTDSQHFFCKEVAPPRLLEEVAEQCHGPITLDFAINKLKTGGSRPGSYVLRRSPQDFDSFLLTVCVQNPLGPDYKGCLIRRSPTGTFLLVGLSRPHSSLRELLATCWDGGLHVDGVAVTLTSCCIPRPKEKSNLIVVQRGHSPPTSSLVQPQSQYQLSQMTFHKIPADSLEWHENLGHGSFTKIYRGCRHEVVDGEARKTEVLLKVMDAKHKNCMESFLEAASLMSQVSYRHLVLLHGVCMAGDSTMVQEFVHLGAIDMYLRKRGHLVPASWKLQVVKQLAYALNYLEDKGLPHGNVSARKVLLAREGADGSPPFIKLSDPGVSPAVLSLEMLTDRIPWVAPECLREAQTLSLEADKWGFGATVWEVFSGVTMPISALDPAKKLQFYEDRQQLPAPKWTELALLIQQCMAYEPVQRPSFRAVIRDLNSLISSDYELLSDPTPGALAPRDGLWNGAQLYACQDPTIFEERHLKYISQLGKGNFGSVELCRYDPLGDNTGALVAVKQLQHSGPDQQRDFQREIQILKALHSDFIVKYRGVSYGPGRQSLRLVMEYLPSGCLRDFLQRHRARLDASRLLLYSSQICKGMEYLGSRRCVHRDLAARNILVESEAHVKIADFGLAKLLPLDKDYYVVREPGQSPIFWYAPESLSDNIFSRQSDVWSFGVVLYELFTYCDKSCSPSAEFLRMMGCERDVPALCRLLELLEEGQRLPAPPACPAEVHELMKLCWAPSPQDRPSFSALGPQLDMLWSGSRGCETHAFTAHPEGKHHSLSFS

Regarding `CCC(CC)n1cc(-c2nc(-c3cnn(CC(O)C(C)(C)C)c3)cn3nccc23)cn1` (centres unmarked) [Example 112, 3,3-dimethyl-1-(4-(4-(1-(pentan-3-yl)-1H-pyrazol-4-yl)pyrazolo[1,5-a]pyrazin-6-yl)-1H-pyrazol-1-yl)butan-2-ol], the half-inhibitory concentration (IC50) is 100 to 1000 nM in assay [1], 1000 to 10000 nM in assay [2], 100 to 1000 nM in assay [3] and 1000 to 10000 nM in assay [4].

As to `CCC(CC)n1cc(-c2nc(-c3cnn(CC(O)C(C)C)c3)cn3nccc23)cn1` (centres unmarked) [Example 113, 3-methyl-1-(4-(4-(1-(pentan-3-yl)-1H-pyrazol-4-yl)pyrazolo[1,5-a]pyrazin-6-yl)-1H-pyrazol-1-yl)butan-2-ol], the IC50 in assay [1] was in the range of 100 to 1000 nM; in assay [2] it was 1000 to 10000 nM; in assay [3], 10 to 100 nM; in assay [4], 1000 to 10000 nM.

As for `CCC(CC)n1cc(-c2nc(-c3cnn(C[C@@H](O)CC)c3)cn3nccc23)cn1` [Example 114, (S)-1-(4-(4-(1-(pentan-3-yl)-1H-pyrazol-4-yl)pyrazolo[1,5-a]pyrazin-6-yl)-1H-pyrazol-1-yl)butan-2-ol], the IC50 is 10 to 100 nM in assay [1], 100 to 1000 nM in assay [2], 10 to 100 nM in assay [3] and 1000 to 10000 nM in assay [4].

Take `CCC(CC)n1cc(-c2nc(-c3cnn(C[C@H](O)CC)c3)cn3nccc23)cn1` [Example 115, (R)-1-(4-(4-(1-(pentan-3-yl)-1H-pyrazol-4-yl)pyrazolo[1,5-a]pyrazin-6-yl)-1H-pyrazol-1-yl)butan-2-ol]: the IC50 in assay [1] was in the range of 10 to 100 nM; in assay [2], 100 to 1000 nM; in assay [3], 10 to 100 nM; in assay [4], 1000 to 10000 nM.

As to `CCC(CC)n1cc(-c2nc(-c3cnn(CC4(O)CCOCC4)c3)cn3nccc23)cn1` [Example 116, 4-((4-(4-(1-(pentan-3-yl)-1H-pyrazol-4-yl)pyrazolo[1,5-a]pyrazin-6-yl)-1H-pyrazol-1-yl)methyl)tetrahydro-2H-pyran-4-ol], the IC50 lay within 10 to 100 nM in assay [1], 1000 to 10000 nM in assay [2] (setting [5]), 10 to 100 nM in assay [3] and 1000 to 10000 nM in assay [4].

Take `CCC(CC)n1cc(-c2nc(-c3cnn(CC(C)(C)O)c3)cn3nccc23)cn1` [Example 117, 2-methyl-1-(4-(4-(1-(pentan-3-yl)-1H-pyrazol-4-yl)pyrazolo[1,5-a]pyrazin-6-yl)-1H-pyrazol-1-yl)propan-2-ol]: the IC50 in assay [1] is 100 to 1000 nM; in assay [2] it was 100 to 1000 nM; in assay [3] it was 100 to 1000 nM; in assay [4] it was 1000 to 10000 nM.

Take `CCC(CC)n1cc(-c2nc(-c3cnn([C@H]4C[C@@H](O)C4)c3)cn3nccc23)cn1` [Example 119, cis-3-(4-(4-(1-(pentan-3-yl)-1H-pyrazol-4-yl)pyrazolo[1,5-a]pyrazin-6-yl)-1H-pyrazol-1-yl)cyclobutanol]: the half-inhibitory concentration (IC50) is 10 to 100 nM in assay [1], 100 to 1000 nM in assay [2] (setting [5]), < 10 nM in assay [3] and 1000 to 10000 nM in assay [4].

Turning to `CCC(CC)n1cc(-c2nc(-c3cnn(C[C@H]4C[C@@H](O)C4)c3)cn3nccc23)cn1` [Example 120, (1s,3s)-3-((4-(4-(1-(pentan-3-yl)-1H-pyrazol-4-yl)pyrazolo[1,5-a]pyrazin-6-yl)-1H-pyrazol-1-yl)methyl)cyclobutanol], the IC50 in assay [1] lay within 10 to 100 nM; in assay [2], 100 to 1000 nM; in assay [3], 10 to 100 nM; in assay [4] it was 1000 to 10000 nM.

For `CCC(CC)n1cc(-c2nc(-c3cnn(C(C)(C)CO)c3)cn3nccc23)cn1` [Example 124, 2-methyl-2-(4-(4-(1-(pentan-3-yl)-1H-pyrazol-4-yl)pyrazolo[1,5-a]pyrazin-6-yl)-1H-pyrazol-1-yl)propan-1-ol], the IC50 in assay [1] lay in the range of 10 to 100 nM; in assay [2], 100 to 1000 nM; in assay [3] it was 10 to 100 nM; in assay [4], 1000 to 10000 nM.

Turning to `CCC(CC)n1cc(-c2nc(-c3cnn([C@@H](C)CO)c3)cn3nccc23)cn1` [Example 125, (S)-2-(4-(4-(1-(pentan-3-yl)-1H-pyrazol-4-yl)pyrazolo[1,5-a]pyrazin-6-yl)-1H-pyrazol-1-yl)propan-1-ol], the IC50 lay in the range of 100 to 1000 nM in assay [1], 1000 to 10000 nM in assay [2] (setting [5]), 10 to 100 nM in assay [3] and 1000 to 10000 nM in assay [4].

For `CCC(CC)n1cc(-c2nc(-c3cnn(C[C@@H]4CNCCO4)c3)cn3nccc23)cn1` [Example 127, (S)-2-((4-(4-(1-(pentan-3-yl)-1H-pyrazol-4-yl)pyrazolo[1,5-a]pyrazin-6-yl)-1H-pyrazol-1-yl)methyl)morpholine trifluoroacetic acid], the IC50 in assay [1] was 100 to 1000 nM; in assay [2], 1000 to 10000 nM; in assay [3] it was 100 to 1000 nM; in assay [4] it was 1000 to 10000 nM.

For `CCC(CC)n1cc(-c2nc(-c3cnn(C[C@@H](CO)N(C)C)c3)cn3nccc23)cn1` [Example 129, (S)-2-(dimethylamino)-3-(4-(4-(1-(pentan-3-yl)-1H-pyrazol-4-yl)pyrazolo[1,5-a]pyrazin-6-yl)-1H-pyrazol-1-yl)propan-1-ol], the IC50 in assay [1] was 10 to 100 nM; in assay [2] (setting [5]) it was 100 to 1000 nM; in assay [3], 10 to 100 nM; in assay [4] it was 1000 to 10000 nM.

Consider `CCC(CC)n1cc(-c2nc(-c3cnn(C[C@@H](N)CO)c3)cn3nccc23)cn1` [Example 130, (R)-2-amino-3-(4-(4-(1-(pentan-3-yl)-1H-pyrazol-4-yl)pyrazolo[1,5-a]pyrazin-6-yl)-1H-pyrazol-1-yl)propan-1-ol], for which the 50% inhibitory concentration (IC50) in assay [1] is 10 to 100 nM; in assay [2] it was 1000 to 10000 nM; in assay [3], 10 to 100 nM; in assay [4], 1000 to 10000 nM.

On to `CCC(CC)n1cc(-c2nc(-c3cnn(C[C@H](CO)N(C)C)c3)cn3nccc23)cn1` [Example 131, (R)-2-(dimethylamino)-3-(4-(4-(1-(pentan-3-yl)-1H-pyrazol-4-yl)pyrazolo[1,5-a]pyrazin-6-yl)-1H-pyrazol-1-yl)propan-1-ol], for which the IC50 in assay [1] is 10 to 100 nM; in assay [2] (setting [5]), 100 to 1000 nM; in assay [3], 10 to 100 nM; in assay [4] it was 1000 to 10000 nM.

As to `CCC(CC)n1cc(-c2nc(-c3cnn(CCNC4CC4)c3)cn3nccc23)cn1` [Example 134, N-(2-(4-(4-(1-(pentan-3-yl)-1H-pyrazol-4-yl)pyrazolo[1,5-a]pyrazin-6-yl)-1H-pyrazol-1-yl)ethyl)cyclopropanamine trifluoroacetate], the IC50 in assay [1] was 10 to 100 nM; in assay [2], 10 to 100 nM; in assay [3], 10 to 100 nM; in assay [4] it was 1000 to 10000 nM.

Turning to `CCC(CC)n1cc(-c2nc(-c3cnn(CCN4CCCC4)c3)cn3nccc23)cn1` [Example 135, 4-(1-(pentan-3-yl)-1H-pyrazol-4-yl)-6-(1-(2-(pyrrolidin-1-yl)ethyl)-1H-pyrazol-4-yl)pyrazolo[1,5-a]pyrazine], the IC50 in assay [1] lay within 10 to 100 nM; in assay [2] it was 1000 to 10000 nM; in assay [3], 10 to 100 nM; in assay [4], 1000 to 10000 nM.

Take `CCC(CC)n1cc(-c2nc(-c3cnn(CCN4CC[C@@H](OC)C4)c3)cn3nccc23)cn1` [Example 136, (R)-6-(1-(2-(3-methoxypyrrolidin-1-yl)ethyl)-1H-pyrazol-4-yl)-4-(1-(pentan-3-yl)-1H-pyrazol-4-yl)pyrazolo[1,5-a]pyrazine]: the IC50 is 10 to 100 nM in assay [1], 100 to 1000 nM in assay [2], 10 to 100 nM in assay [3] and 1000 to 10000 nM in assay [4].

On to `CCC(CC)n1cc(-c2nc(-c3cnn(CCN4CC[C@H](OC)C4)c3)cn3nccc23)cn1` [Example 137, (S)-6-(1-(2-(3-methoxypyrrolidin-1-yl)ethyl)-1H-pyrazol-4-yl)-4-(1-(pentan-3-yl)-1H-pyrazol-4-yl)pyrazolo[1,5-a]pyrazine], for which the 50% inhibitory concentration (IC50) is 10 to 100 nM in assay [1], 100 to 1000 nM in assay [2], 10 to 100 nM in assay [3] and 1000 to 10000 nM in assay [4].

`CCC(CC)n1cc(-c2nc(-c3cnn(CCN4CC(F)C4)c3)cn3nccc23)cn1` [Example 138, 6-(1-(2-(3-fluoroazetidin-1-yl)ethyl)-1H-pyrazol-4-yl)-4-(1-(pentan-3-yl)-1H-pyrazol-4-yl)pyrazolo[1,5-a]pyrazine]: the IC50 is 10 to 100 nM in assay [1], 1000 to 10000 nM in assay [2], 10 to 100 nM in assay [3] and 1000 to 10000 nM in assay [4].

With `CCC(CC)n1cc(-c2nc(-c3cnn(CCN4CCC(O)CC4)c3)cn3nccc23)cn1` [Example 139, 1-(2-(4-(4-(1-(pentan-3-yl)-1H-pyrazol-4-yl)pyrazolo[1,5-a]pyrazin-6-yl)-1H-pyrazol-1-yl)ethyl)piperidin-4-ol], the half-inhibitory concentration (IC50) was in the range of 100 to 1000 nM in assay [1], 100 to 1000 nM in assay [2], 10 to 100 nM in assay [3] and 1000 to 10000 nM in assay [4].

The values are drawn from patent publication US10189845B2, “4,6-substituted-pyrazolo[1,5-a]pyrazines as janus kinase inhibitors” (ARRAY BIOPHARMA INC., priority 2014, dated 2019).
